US20260272998A1, “CHEMICALLY-MODIFIED MICROORGANISM CONTAINING A SUPEROXIDE DISMUTASE MIMIC INORGANIC COMPLEX AND USE THEREOF FOR TREATING INFLAMMATORY DISEASES” (INSTITUT NATIONAL DE RECHERCHE POUR L'AGRICULTURE, …, priority 2023, published 2026)
“Also recorded” adds a separate entry of the source.

Columns and labels:
[1] = McCord and Fridovich assay; cited from earlier work
[2] = test system: DBNS-induced colitis murine model; settings: administered orally in a carbonate buffer; cited from earlier work
[3] = test system: intestinal epithelial cells and macrophages; settings: cited from earlier work
[4] = test system: Lactobacillus plantarum MD007 strain
Protocol: The Lactobacillus plantarum MD007 strain is grown in MRS containing D-alanine (200 μg/mL) at 37° C.
An overnight culture is used to inoculate fresh medium in order to get an OD600 nm of 0.2, and cells are grown to an OD600 nm of 0.7 and are washed three times D-alanine free MRS medium. The washed bacteria are incubated in medium without D-alanine for 3 h at 37° C. before SOD mimic loading. After alanine starvation, the bacteria are washed three times with Hepes (0.1 M, pH 7.4) to reach a concentration about 10^9 bacteria per 200 μL.
After removal of the culture medium supernatant, bacteria are incubated with Hepes (0.1 M, pH 7.4) only, or with the tested compounds (Mn1 or Mn1C) at the desired concentration in the same buffer for two or twenty-four hours, at 37° C. Mn1C, Mn1 solutions are prepared extemporaneously to prevent degradation and manganese oxidation reactions. After cultures centrifugation and washing with Hepes (0.1 M, pH 7.4), the bacteria are resuspended in Hepes 0.1 M containing 16% glycerol to reach a concentration about 10^9 bacteria per 200 μL. […]
To assess bacteria viability, the overnight culture and the frozen vials are controlled by CFU (colony forming unit) test by diluting the preparation in PBS by serial 1/10 dilution and plating a known volume of the dilutions on the corresponding medium. […] Colonies are then counted by visual observation.

In the case of `Cn1ccnc1CNCCN(Cc1ccccc1O)Cc1nccn1C.[Mn+2]` [Mn1], the “kcat for superoxide dismutation” value [1] is given as 7.10^6 M^−1·s^−1, the “anti-inflammatory activity in DNBS-induced colitis (weight variation, macroscopic scores)” value [2] is given as “exert an intracellular anti-inflammatory activity in vivo; also recorded: ameliorates DNBS-induced colitis” and the “antioxidant and anti-inflammatory effects on cells” value [3] is given as “antioxidant and anti-inflammatory effects”. The “cell viability of loaded bacteria (CFU)” value [4] was “does not affect cell viability”.
